Experimental data: article PMC12036875, “Mitochondria-targeting natural product rhein conjugated with dichloroacetate as the dual inhibitor of glycolysis and oxidative phosphorylation to off energize cancer cells and induce ROS storm” (Theranostics, 2025)
Like-named read-outs stand apart in the source and are kept apart here.

What was measured:
4T1 cells [1] = test: Oxygen consumption rate (Seahorse); type: cell-based, Mouse; settings: 6.25 μM, 24 h
Excerpt: (§1) TMRE is a lipophilic cationic fluorescent probe (Ex = 550 nm, Em = 575 nm). The accumulation of TMRE within the mitochondria would reduce with the mitochondrial depolarization, resulting in a decrease in fluorescence intensity. […] The integrity of mitochondria is significant for mitochondrial bioenergy production. Given the influence of ETC, NADH dehydrogenase, ATP synthase and the decrease of Δψm, we speculated that the ATP production from OXPHOS would be hindered by Rhein-DCA conjugate. Mitochondrial bioenergetic processes of 4T1 cells was measured by oxygen consumption rate (OCR) to reflect the capability of OXPHOS.
The mitochondrial bioenergetics of 4T1 cells was investigated by Seahorse Extracellular Flux analyser. 4T1 cells were seeded in 24-well plates (Seahorse Bioscience) at a density of 2 × 10^4 cells per well and incubated for 24 h at 37 °C in 5% CO2 atmosphere. The cells were treated with indicated drugs at a concentration of 6.25 μM for 24 h. At the same time, XF sensor cartridges were hydrated overnight in a CO2-free environment. The cells were cultured in the incubator for 1 h at 37 °C without CO2 after washed with Seahorse XF assay medium. Three baseline measurements of OCR were detected with Seahorse XFe24 analyzer when the oligomycin (1.0 μM, ATP synthase complex inhibitor), FCCP (1.0 μM, ATP synthesis uncoupler […]) and the mixture of antimycin-A (1.0 μM, inhibitor of complex III) and rotenone (1.0 μM, inhibitor that prevents the transfer of electrons from the Fe-S center in complex I to ubiquinone) were sequentially injected for the detection of the oxygen consumption rate.

CT26 cells = test: MTT cytotoxicity assay; type: cell-based; settings: Mus musculus, CT26, 72 h, read-out: IC50 CT26
Protocol: (§2) The cytotoxicity of Rhein-DCA conjugate was performed on various cancer cell lines, including breast cancer (4T1 and MCF-7), cervical cancer (HeLa), and colorectal carcinoma (CT26) via 3-(4,5)-dimethylthiahiazo(-z-y1)-3,5-di-phenytetrazoliumromide (MTT) assay. […] Moreover, the cytotoxicity of these compounds (rhein, DCA, R + D and Rhein-DCA) for normal cells (293T) was lower than that of those tested cancer cells.
(§3) Mouse breast cancer 4T1 cells and Mouse colorectal carcinoma CT26 cells were purchased from Haixing Biosciences Co., Ltd (Jiangsu, P. R. China), and cultured in complete RPMI-1640 medium supplemented with 10% FBS and 1% Penicillin / Streptomycin in a cell incubator (37 °C in 95% air and 5% CO2 atmosphere). Human breast cancer MCF-7 cells, Human cervical carcinoma HeLa cells and Human embryonic kidney 293T cells were obtained from the China Center for Type Culture Collection (CCTCC). MCF-7 and HeLa cells were cultured in DMEM medium containing 10% FBS and 1% Penicillin / Streptomycin and then cultured in a cell incubator (37 °C in 95% air and 5% CO2 atmosphere).
(§4) The cytotoxicity of rhein, DCA, the mixture of rhein and DCA (R + D) and Rhein-DCA conjugate was evaluated on HeLa, MCF-7, CT26, 4T1 and 293T cell lines by MTT assay. Cells were seeded in 96-well plates at a density of 3 × 10^3 cells per well in the corresponding complete culture medium and cultured for 24 h. Then cells were incubated with 200 μL fresh medium containing the respective desired concentrations of rhein, DCA, R + D (with the concentrations being 100, 66.7, 44.4, 29.6, 19.8, 13.2, 8.8, 5.9, 3.9, 2.6, 1.7 and 1.2 μM, respectively) and Rhein-DCA conjugate (with the concentrations being 29.6, 19.8, 13.2, 8.8, 5.9, 3.9, 2.6, 1.7, 1.2, 0.8, 0.5 and 0.3 μM, respectively). After 72 h of incubation, 20 μL of MTT solution (5 mg/mL) was added to each well and the plates were cultured for another 4 h. The medium was carefully removed, and 110 μL of DMSO was added into per well to dissolve the formazan. The absorption densities at 590 nm were recorded with microplate reader. The quoted IC50 values were presented as the mean ± standard deviation.

4T1 cells [2] = test: MTT cytotoxicity assay; type: cell-based; settings: Mus musculus, read-out: IC50 4T1
Protocol: as §2, §3, §4

MCF-7 cells = test: MTT cytotoxicity assay; type: cell-based; settings: Homo sapiens, read-out: IC50 MCF-7
Protocol: as §2, §3, §4

HeLa cells = test: MTT cytotoxicity assay; type: cell-based; settings: Homo sapiens
Protocol: as §2, §3, §4

[3] = system: 4T1, MCF-7, HeLa and CT26 cell lines; test: MTT cytotoxicity assay, statement over all tested cancer cell lines; type: cell-based; settings: for IC50: 72 h, read-out: IC50 in all tested cell lines
Protocol: as §2, §4

4T1 cells [4] = test: Mitochondrial membrane potential assay, JC-1; type: cell-based, Mouse; settings: 6.25 μM, 24 h; for JC-1 green/red fluorescence (Δψm), in words: vs control
Excerpt: On the other hand, rhein could also disturb mitochondria, the camp of OXPHOS, to further prevent cancer cells from obtaining ATP by inducing pathological opening of mPTP [30]. We first detected mPTP on 4T1 cancer cells treated with indicated drugs according to the mPTP assay kit. The green fluorescence of Calcein AM in mitochondria would vanish when the quencher entered mitochondria through the opened mPTP channel. […] The sustained opening of mPTP along with the loss of Δψm. Thus, we further examined the Δψm of 4T1 cancer cells with JC-1 fluorescence dyes and tetramethylrhodamine, ethyl ester (TMRE) probe. The JC-1 dyes underwent a transition from aggregated red fluorescence to monomeric green fluorescence with mitochondrial depolarization in cells, and the increase of green/red fluorescence intensity ratio of JC-1 dyes indicated mitochondrial depolarization.
as §1
JC-1: The Δψm was performed using the JC-1 assay with flow cytometry and confocal microscope. 4T1 cells were separately seeded into 6-well plates and confocal dishes at a density of 10 × 10^4 cells per well and cultured at 37 °C for 24 h. Cells were cultured with PBS, rhein (6.25 μM), DCA (6.25 μM), R + D (6.25 μM + 6.25 μM) and Rhein-DCA (6.25 μM) for another 24 h. […] Samples were then immediately detected by flow cytometry and imaged with confocal microscope.

[5] = 72 h treatment, MTT, mean ± S.D., n = 3
[6] = 4T1, 72 h treatment, MTT, mean ± S.D., n = 3
[7] = MCF7, 72 h treatment, MTT, mean ± S.D., n = 3
[8] = 72 h treatment, MTT, mean ± S.D., n = 3, read-out: IC50 HeLa

Structure (SMILES) | effect on OCR / cellular OXPHOS (basal respiration, ATP production, maximal respiration) (4T1 cells [1]) | IC50 (CT26 cells) | IC50 (4T1 cells [2]; 4T1, 72 h) | IC50 (MCF-7 cells; MCF7, 72 h) | IC50 (HeLa cells; 72 h, read-out: IC50 HeLa) | IC50 [3] | JC-1 green/red fluorescence (Δψm), in words (4T1 cells [4]) | IC50 (CT26 cells; [5]) | IC50 (4T1 cells [2]; [6]) | IC50 (MCF-7 cells; [7]) | IC50 (HeLa cells; [8]) | IC50 ([3]; MTT, summary over the cell lines) | increase of cytotoxicity in comparison with individual rhein, DCA and their combination ([3]; all four cancer cell lines) | JC-1 green/red ratio relative to control group (4T1 cells [4])
O=C(O)C(Cl)Cl [DCA, Dichloroacetate] | minor effect | > 100 µM | > 100 µM | > 100 µM | > 100 µM | > 100 µM | did not affect | – | – | – | – | – | – | –
O=C(O)c1cc(O)c2c(c1)C(=O)c1cccc(O)c1C2=O [Rhein, 4,5-dihydroxyanthraquinone-2-carboxylic acid] | moderate effects | – | – | – | – | – | relatively increased green/red ratio | 42.1 ± 3.3 µM | 41.2 ± 1 µM | 79.9 ± 2.3 µM | 68.3 ± 5.1 µM | 40 to 80 µM | – | –
O=C(OCCOC(=O)C(Cl)Cl)c1cc(O)c2c(c1)C(=O)c1cccc(O)c1C2=O [Rhein-DCA] | complete disruption | – | – | – | – | – | – | 2.7 ± 0.1 µM | 1.7 µM | 3.9 µM | 6.7 µM | – | at least 10 fold | about 7 fold
